# Reference: patent publication US10947260B2, “Phosphinolactone derivatives and pharmaceutical uses thereof” (INSTITUT NATIONAL DE LA SANTE ET DE LA RECHERCHE MEDICALE …, priority 2016, dated 2021)
# What was measured:
# [1] = test system: mice treated with peptide Aβ25-35; experiment: In vivo screening of derivatives as neuroprotectors (spontaneous alternation, passive avoidance, ROS level), Aβ25-35 model
# Procedure: FIG. 7: Screening of phosphinolactones as neuroprotectors in mice treated with peptide Aβ25-35: (a) spontaneous alternation; (b) passive avoidance step-through latency; (c) Levels of reactive oxygen species in hippocampus. The mice were given compound 3b (0.3, 0.7 mg/kg IP) or a dose of each compound (0.3 mg/kg IP) 20 min before I′Aβ25-35 or the control peptide Sc.Aβ (9 nmol ICV). The animals were tested in the Y-maze on Day 7 after the ICV injections and for passive avoidance on Days 8-9, and then sacrificed. In each graph at (a-c), the 50% protection level compared with the deficit induced by Aβ25-35 is plotted as a dotted line. It is to be noted that at (a), the column represents the median and the error bars represent the deviations 25%-75% (=asymmetric deviations). n=12 at (a, b) and 5-6 at (c). ANOVA on groups 1-4: F(3.63)=7.95, p<0.001 at (b); H=24.1, p<0.0001 at (c); F(3.44)=6.33, p<0.01 at (d). *p<0.05, **p<0.01, ***p<0.001 compared with group (Sc.Aβ+V); #p<0.05, ##p<0.01, ###p<0.001 compared with group (Aβ25-35+V); Dunnett test at (a, c) and Dunn at (b). The values of the groups 5-12 (screened compounds) were analysed by t-test at (a, c) or Mann-Whitney at (b).
# From the molecules derived from the synthesis, a panel of 8 derivatives was selected and screened for potential neuroprotective efficacy. The compounds were injected at a dose of 0.3 mg/kg IP, i.e. the maximum non-active dose of 3b and compared with 3b injected at 0.3 and 0.7 mg/kg IP. The compounds were injected […] before the Aß25-35 peptide, and the mice were tested for spontaneous alternation on Day 7, passive avoidance on Days 8 and 9 and the ROS level was measured in the hippocampus (FIG. 7). For each response (spontaneous alternation: FIG. 7a; step-through latency in passive avoidance: FIG. 7b, and DCF fluorescence level: FIG. 7c), a 50% level of the effect between the values of the ScAß and Aß25-35 animals was taken as criterion of efficacy. […] Compound 3c is an isomer at the position of the chlorine atom of 3b. Regarding compound 3n, this has a 5-pyrimidyl group attached to the phosphorus atom, and for compound 3l it is a 4-pyridinyl group.
# [2] = test system: APPSwe mice; experiment: Spatial learning in pool, APPSwe mice; format: in vivo
# Procedure: FIG. 9: Spatial learning in pool (a-c) and object recognition (d-f) for APPSwe mice after 2-month treatment with compound 3b. Pool: acquisition profiles of WT mice treated with V and 3b (2 mg/kg) (a) or APPSwe mice (b). (c) Presence in training quadrant (T) and mean in the other quadrants (o) during trial test performed 48 h after the last training session. Friedman non-parametric ANOVA with repeated measures: Fr=21.7, p<0.001 for the group WT/V, Fr=21.8, p<0.001 for the group WT/3b at (a); Fr=13.0, p<0.05 for group APPSwe/V, Fr=12.2, p<0.05 for group APPSwe/3b at (b). Object recognition: Number of contacts with the objects during sessions 2 and 3 (d) and preferences for object at position 2 computed as contacts (e) or contact time (f). ^∘ p<0.05, ^∘∘ p<0.01 compared with chance level: 15 s at (c), 50% at (e, f), One Sample t-test. ^$ p<0.05, ^$$ p<0.01, ^$$$ p<0.001 compared with the mean of the other quadrants (o) at (c). *p<0.05 compared with group WT/V at (d).
# FIG. 11: Spatial learning in pool (a-c) and object recognition (d-f) for APPSwe mice after 2-month treatment with compound 3c. Pool: acquisition profiles of WT mice treated with V and 3c (2 mg/kg) (a) or APPSwe mice (b). (c) Presence in training quadrant (T) and mean in the other quadrants (o) during the trial test performed 48 h after the last training session. Friedman non-parametric ANOVA with repeated measures: Fr=20.7, p<0.001 for group WT/V, Fr=17.5, p<0.001 for group WT/3c at (a); Fr=11.4, p<0.05 for group APPSwe/V, Fr=13.6, p<0.01 for group APPSwe/3b at (b). […]
# The pool was a circular water chamber (diameter 140 cm, height 40 cm). […] Swims could be recorded using Videotrack® ViewPoint software, (Champagne-au-Mont-d'Or, France), with trajectories analysed for time and distance. […]
# Acquisition phase: this consisted of 3 swims per day for 5 days with an interval of 20 min. […] Swim latency was measured. […] The median of swim times was calculated for each day and expressed for the experimental group as a mean±SEM.
# Recall phase: a trial test was conducted […] after the last acquisition session. […] The session was monitored by video and the time spent in the training quadrant (where the platform had been placed) was measured.
# After 2-month treatment, the mice were examined with a complex long-term spatial learning test, the locating of an invisible platform in a circular pool 1.5 m in diameter, followed by the object recognition test. […] 48 h after the last acquisition session, the platform was withdrawn from the pool and the time spent in each of the quadrants of the pool was analysed. […]
Compound,"criterion of efficacy: 50% level of the effect between ScAβ and Aβ25-35 animals (spontaneous alternation, step-through latency, DCF fluorescence) ([1]; 0.3 mg/kg IP)",efficacy compared with 3b ([1]; Aβ25-35 model),efficiency in the screening of the molecules in the series ([1]; Aβ25-35 model),spatial performance of WT mice at trial test ([2]; 1 mg/kg/d),"pool acquisition profile, APPSwe animals ([2]; 1 mg/kg/d, 2-month treatment)","presence in the training quadrant at trial test, APPSwe mice ([2]; 1 mg/kg/d, 48 h after last training)",maximum non-active dose of 3b ([1]; IP) [mg/kg],spatial performance of WT mice at trial test ([2]; 2 mg/kg/j IP)
"CC1(C)COP(=O)(c2ccc(Cl)cc2)C(C)(C)N1 (racemic) [Compound 3c, (±)-2-(4-Chlorophenyl)-2-oxo-3,3,5,5-tetramethyl-[1,4,2]-oxazaphosphinane]",met the criterion for the 3 parameters,as effective at 0.3 mg/kg IP as 3b at 0.7 mg/kg IP,highly efficient,decrease is noted in spatial performance,did not affect the acquisition profile,significantly restored preferred presence in the training quadrant,–,–
"CC1(C)COP(=O)(c2cccc(Cl)c2)C(C)(C)N1 (racemic) [Compound 3b, (±)-2-(3-Chlorophenyl)-2-oxo-3,3,5,5-tetramethyl-[1,4,2]-oxazaphosphinane]",–,–,–,–,–,–,0.3,decrease is noted in spatial performance
